Data set [1] concerns the target T1, Succinate receptor 1 (Rattus norvegicus, UniProt Q6IYF9).
T1 sequence (Q6IYF9 whole entry): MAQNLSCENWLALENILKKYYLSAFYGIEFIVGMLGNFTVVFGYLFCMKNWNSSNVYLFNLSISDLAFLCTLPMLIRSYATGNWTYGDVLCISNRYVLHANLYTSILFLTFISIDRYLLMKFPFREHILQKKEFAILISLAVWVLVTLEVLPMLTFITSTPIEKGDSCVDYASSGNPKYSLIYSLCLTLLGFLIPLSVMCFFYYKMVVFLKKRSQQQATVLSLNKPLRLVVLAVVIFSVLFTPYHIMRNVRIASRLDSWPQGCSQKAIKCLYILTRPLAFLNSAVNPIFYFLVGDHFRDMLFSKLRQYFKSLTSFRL
Briefly: Antagonist activity at rat GPR91 receptor expressed in CHO-K1 cells co-expressing Galpha and Gqi5 G-protein assessed as inhibition of succinate-induced increase in intracellular calcium level by FLIPR assay. The data set is classed as functional, cell-based. On the technique in general: Calcium assays in cells follow changes in intracellular calcium, usually with a dye or a luminescent sensor.

For data set [2], the target named is 2-oxoglutarate receptor 1 (Homo sapiens, UniProt Q96P68). Kind of data set: Antagonist activity at human GPR99 receptor expressed in CHO-K1 cells co-expressing Galpha and Gqi5 G-protein assessed as inhibition of succinate-induced increase in intracellular calcium level at by FLIPR assay. The data set is classed as functional, cell-based.
Sequence of 2-oxoglutarate receptor 1 (Q96P68 whole entry, looked up): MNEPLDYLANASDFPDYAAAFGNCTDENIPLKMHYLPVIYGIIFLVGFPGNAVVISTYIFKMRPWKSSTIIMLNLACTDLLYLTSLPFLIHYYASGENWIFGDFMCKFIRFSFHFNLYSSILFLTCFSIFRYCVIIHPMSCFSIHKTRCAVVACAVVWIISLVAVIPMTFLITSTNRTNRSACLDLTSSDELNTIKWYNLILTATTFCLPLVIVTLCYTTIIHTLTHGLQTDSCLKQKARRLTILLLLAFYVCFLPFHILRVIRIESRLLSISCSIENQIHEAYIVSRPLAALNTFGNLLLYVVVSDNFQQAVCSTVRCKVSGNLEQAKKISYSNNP
A short description of data set [3]: Plasma clearance in Wistar rat at 5 mg/kg, iv. The data set is classed as ADME, organism-based. Also noted: dose 5 mg/kg, route intravenous.
Data set [4] can be described thus: Terminal half life in Wistar rat at 5 mg/kg, iv. The data set is classed as ADME, organism-based. Also noted: dose 5 mg/kg, route intravenous. As to conditions: in vivo, read-out: beta t1/2 (converted).
The nature of data set [5]: Volume of distribution at steady state in Wistar rat at 5 mg/kg, iv. The data set is classed as ADME, organism-based. Set-up: dose 5 mg/kg, route intravenous. As to conditions: in vivo, read-out: Vdss.
The target of data set [6] is T2, Succinate receptor 1 (Homo sapiens, UniProt Q9BXA5).
T2 sequence (Q9BXA5 whole entry): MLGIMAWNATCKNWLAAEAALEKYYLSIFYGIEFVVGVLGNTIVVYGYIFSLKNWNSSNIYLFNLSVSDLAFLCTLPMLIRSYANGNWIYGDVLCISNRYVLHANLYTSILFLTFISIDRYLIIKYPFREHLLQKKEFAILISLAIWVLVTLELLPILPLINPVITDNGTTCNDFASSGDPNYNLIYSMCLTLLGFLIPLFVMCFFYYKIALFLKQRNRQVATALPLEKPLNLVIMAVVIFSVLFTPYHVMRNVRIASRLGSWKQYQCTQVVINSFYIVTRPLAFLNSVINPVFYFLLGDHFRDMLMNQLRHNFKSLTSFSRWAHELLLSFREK
Briefly: Antagonist activity at human GPR91 receptor expressed in CHO-K1 cells co-expressing Galpha and Gqi5 G-protein assessed as inhibition of succinate-induced increase in intracellular calcium level by FLIPR assay. The data set is classed as functional, cell-based.

Data set [7] can be described thus: Cmax in Wistar rat at 5 mg/kg, iv by LC/MS/MS analysis. The data set is classed as ADME, organism-based. Also noted: dose 5 mg/kg, route intravenous. The note with it: in vivo.
The subject of data set [8] is Liver microsomes. Kind of data set: Intrinsic clearance in rat liver microsomes preincubated for 5 mins before addition of NADPH measured after 30 mins by LC/MS/MS analysis. As to conditions: 0.5 h. The data set is classed as ADME, Microsome. On the technique in general: Liver microsomes are a subcellular fraction often used to study metabolism.
Data set [9] in a line: AUC (0 to 8 hrs) in Wistar rat plasma at 50 mg/kg, ip. The data set is classed as ADME, organism-based. Also noted: time < 8 hr, dose 50 mg/kg, route intraperitoneal.
A short description of data set [10]: Drug concentration in Wistar rat kidney at 50 mg/kg, ip after 4 hrs. The data set is classed as ADME, organism-based. Also noted: dose 50 mg/kg, route intraperitoneal. As to conditions: read-out: Drug uptake.
Data set [11] in a line: Tmax in Wistar rat at 50 mg/kg, ip. The data set is classed as ADME, organism-based. Also noted: dose 50 mg/kg, route intraperitoneal. The note with it: in vivo.
Data set [12] can be described thus: Cmax in Wistar rat at 50 mg/kg, ip by LC/MS/MS analysis. Set-up: dose 50 mg/kg, route intraperitoneal. The data set is classed as ADME, organism-based. As to conditions: in vivo.
The nature of data set [13]: Plasma concentration in Wistar rat plasma at 50 mg/kg, ip at 8 hrs. The data set is classed as ADME, organism-based. Also noted: dose 50 mg/kg, route intraperitoneal.
Data set [14] relates to Rattus norvegicus. Briefly: Hypotensive activity in Wistar rat assessed as inhibition of succinate-induced increase in mean arterial pressure at 50 mg/kg, ip after 2 hrs post dose. The data set is classed as functional. The note with it: Artery, route intraperitoneal.
Data set [15] can be described thus: Plasma concentration in Wistar rat plasma at 50 mg/kg, ip at 2 hrs. The data set is classed as ADME, organism-based. Set-up: dose 50 mg/kg, route intraperitoneal.
Data set [16] can be described thus: Plasma concentration in Wistar rat plasma at 50 mg/kg, ip at 4 hrs. The data set is classed as ADME, organism-based. Set-up: dose 50 mg/kg, route intraperitoneal.
Data set [17] relates to Rattus norvegicus. Briefly: Hypotensive activity in Wistar rat assessed as inhibition of succinate-induced increase in mean arterial pressure at 50 mg/kg, ip after 4 hrs post dose. The data set is classed as functional. The note with it: Artery, route intraperitoneal.
Data set [18] is described as follows: Plasma protein binding in Wistar rat at 50 mg/kg, ip. The data set is classed as ADME, organism-based. As to conditions: read-out: PPB. Set-up: dose 50 mg/kg, route intraperitoneal.
A short description of data set [19]: Plasma concentration in Wistar rat plasma at 30 mg/kg, po at 2 hrs. Set-up: dose 30 mg/kg, route oral. The data set is classed as ADME, organism-based.
The nature of data set [20]: Oral bioavailability in Wistar rat plasma at 30 mg/kg. The data set is classed as ADME, organism-based.
A short description of data set [21]: Terminal half life in Wistar rat plasma at 30 mg/kg, po. The data set is classed as ADME, organism-based. Also noted: dose 30 mg/kg, route oral. As to conditions: read-out: beta t1/2 (converted).
Data set [22] is described as follows: Plasma concentration in Wistar rat plasma at 30 mg/kg, po at 4 hrs. The data set is classed as ADME, organism-based. Also noted: dose 30 mg/kg, route oral.
The nature of data set [23]: Cmax in Wistar rat at 30 mg/kg, po by LC/MS/MS analysis. The data set is classed as ADME, organism-based. Set-up: dose 30 mg/kg, route oral. The note with it: in vivo.
A short description of data set [24]: AUC (0 to 24 hrs) in Wistar rat plasma at 30 mg/kg, po. The data set is classed as ADME, organism-based. Also noted: time < 24 hr, dose 30 mg/kg, route oral.
Data set [25] in a line: Tmax in Wistar rat at 30 mg/kg, po. The data set is classed as ADME, organism-based. Also noted: dose 30 mg/kg, route oral. As to conditions: in vivo.
Data set [26] deals with T3, B1 bradykinin receptor (Homo sapiens, UniProt P46663).
T3 sequence (P46663 whole entry): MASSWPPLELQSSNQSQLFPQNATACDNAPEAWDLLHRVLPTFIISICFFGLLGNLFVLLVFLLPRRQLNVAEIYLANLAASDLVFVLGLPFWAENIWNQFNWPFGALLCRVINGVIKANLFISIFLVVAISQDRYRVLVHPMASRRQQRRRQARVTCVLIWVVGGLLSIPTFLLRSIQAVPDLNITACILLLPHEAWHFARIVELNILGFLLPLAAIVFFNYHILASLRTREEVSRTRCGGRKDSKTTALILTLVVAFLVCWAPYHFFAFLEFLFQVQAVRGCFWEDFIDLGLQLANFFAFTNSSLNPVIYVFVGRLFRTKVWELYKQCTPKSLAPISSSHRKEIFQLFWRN
Briefly: Antagonist activity at human bradykinin B1 receptor expressed in […] cells assessed as inhibition of calcium flux by FLIPR assay. The data set is classed as functional, cell-based.

Molecules are shown by their SMILES.

The term IC50 denotes the concentration that inhibits the measured activity by half. Usually clearance stands for a measure of how efficiently the substance is removed, as volume per time. A low value points to a low capacity for elimination. A word on the Cmax: it is the peak of the concentration-time curve. The term AUC(0-t) denotes exposure summed from dosing to a finite time, without extrapolation to infinity. Broadly, the Tmax is the time from dosing to the highest level. The inhibition in vivo is the change of the read-out against control, counted positive when it falls. Broadly, the bioavailability is the share of a dose that reaches the circulation, judged against a reference dose that is usually intravenous. High values mean much systemic uptake, low ones little systemic uptake.

As to `C[C@H](NC(=O)CCCc1ccc2cccnc2n1)c1ccc(-c2cccc(Cl)c2)cc1`, the values for the IC50 in data set [1], in data set [2] and in data set [6] were 0.1 µM, 2 µM and 0.011 µM, respectively. This molecule gave a clearance in data set [3] of 14.8 mL/min/kg. Further, in data set [4], the half-life was 48 min. For the same molecule, the Vd in data set [5] turned out to be 0.7 L/kg. In addition, the Cmax in [7] was 19 µM. The Intrinsic clearance in [8] is recorded as 0.42 nmol/min/mg.

In [9], `Cc1cccc(-c2ccc(CNC(=O)CCCc3ccc4cccnc4n3)cc2)c1` yielded an exposure AUC(0-t) at 8 h of 17.4 µM·h. The concentration at 4 h in data set [10] came to 7 µM; in [16], 2 µM. For the same molecule, the time to peak (Tmax) in data set [11] is 108 min. Further, the results for the 50% inhibitory concentration (IC50) in [1], in data set [2] and in data set [6] were 0.007 µM, greater than 30 µM and 0.03 µM, respectively. The maximum concentration (Cmax) amounted to 3.7 µM in data set [12] and 19 µM in data set [7]. This molecule also gave a concentration at 8 h in data set [13] of 1.1 µM. For the same molecule, the inhibition in vivo at 50 mg/kg is 71% in [14] and 67% in data set [17]. Moreover, the clearance in [3] is 64.7 mL/min/kg. For the same molecule, in data set [4], the half-life was 6 min. In data set [15], this molecule registered a concentration at 2 h of 1.8 µM. Moreover, the Vd in data set [5] stood at 0.5 L/kg. The fraction unbound in data set [18] turned out to be 0.01. For the same molecule, the Intrinsic clearance in [8] is 1.2 nmol/min/mg.

In data set [9], `O=C(CCCc1ccc2cccnc2n1)NCc1cc(-c2ccc(F)c(C(F)(F)F)c2)no1` gave an AUC(0-t) at 8 h of 267 µM·h. Besides, the Tmax in [11] came out at 120 min; in data set [25], 30 min. In addition, the IC50 in [1] was 0.135 µM; in data set [2], greater than 30 µM; in data set [6] it was 0.035 µM. Moreover, the peak concentration (Cmax) came out at 22 µM in data set [12], 40 µM in data set [7] and 37 µM in data set [23]. Also, the concentration at 8 h in [13] worked out at 19 µM. Besides, the concentration at 2 h is 11.3 µM in data set [19] and 22 µM in [15]. The molecule also came in with a clearance in [3] of 4.7 mL/min/kg. Further, the figures for the half-life in data set [4] and in data set [21] were 66 min and 54 min, respectively. For the same molecule, the concentration at 4 h is 19 µM in [16] and 2.6 µM in data set [22]. The Vd in [5] came to 0.36 L/kg. Also, in data set [20], the bioavailability came to 26%. This molecule showed an Intrinsic clearance in data set [8] of 0.12 nmol/min/mg. Besides, the AUC(0-t) at 24 h in [24] came out at 69 µM·h.

On to `COC(=O)c1c(F)cccc1-c1ccc(CNC(=O)CCCc2ccc3cccnc3n2)c(F)c1`, for which the IC50 in [6] was determined as 0.8 µM; in [26] it was 2.5 µM. In data set [8], this molecule returned an Intrinsic clearance of 0.7 nmol/min/mg.

The values are drawn from ChEMBL document CHEMBL2150920, “Discovery of a potent and selective small molecule hGPR91 antagonist” (Bioorg Med Chem Lett, 2011).
